Tests used:
[1] = biological target: T1, PI3K p110a (Homo sapiens, UniProt P42336); assay: PI3K p110a kinase assay; format: biochemical
T1 construct: purchased Millipore
Description: In the assays described here, p110α-p85 complex and p110γ were acquired from Millipore. Assays were performed with Lα-phosphatidylinositol (Avanti) as described in Knight et al. Nat Protoc. […] Inhibitor series were prepared 10% DMSO as 5× stocks for the assay. […] COS-7 cells were cultured in 10 cm dishes and transfected at 70% confluence with 10 μg of plasmid DNA (HA-tagged bovine PI4KIIIβ, HA-tagged human PI4KIIIα) using Lipofectamine 2000 and 5 ml Opti-MEM following the manufacturer's instructions. After 5 hours the transfection medium was replaced with 10 ml complete DMEM. 36 hrs post transfection, cells were washed once with 5 ml PBS (pH 7.4) and lysed in 1 ml of lysis buffer (1) on ice. […] To the lysates was added 200 μl of protein G Sepharose 4 fast flow beads that were prewashed with PBS and lysis buffer and 2 μg of anti-HA antibody. The tubes were then incubated overnight at 4 degrees C. in a tube rotator. […] Kinase reactions were run in a mixture of 45 μL of PI buffer (1 mM PI in kinase buffer), 10 μL of immunoprecipitated beads, 2 µL of inhibitors (dissolved and diluted in DMSO) or DMSO and 5 μL of [γ-^32P]-ATP (1 mM and 2 μCi/tube). […] Samples were counted in a scintillation beta counter after adding 5 ml of Instafluor (Perkin-Elmer). […]

[2] = biological target: T2, PI3KC2G (Homo sapiens, UniProt O75747); assay: PI3KC2G kinase assay; format: biochemical
T2 sequence (O75747 1-1486): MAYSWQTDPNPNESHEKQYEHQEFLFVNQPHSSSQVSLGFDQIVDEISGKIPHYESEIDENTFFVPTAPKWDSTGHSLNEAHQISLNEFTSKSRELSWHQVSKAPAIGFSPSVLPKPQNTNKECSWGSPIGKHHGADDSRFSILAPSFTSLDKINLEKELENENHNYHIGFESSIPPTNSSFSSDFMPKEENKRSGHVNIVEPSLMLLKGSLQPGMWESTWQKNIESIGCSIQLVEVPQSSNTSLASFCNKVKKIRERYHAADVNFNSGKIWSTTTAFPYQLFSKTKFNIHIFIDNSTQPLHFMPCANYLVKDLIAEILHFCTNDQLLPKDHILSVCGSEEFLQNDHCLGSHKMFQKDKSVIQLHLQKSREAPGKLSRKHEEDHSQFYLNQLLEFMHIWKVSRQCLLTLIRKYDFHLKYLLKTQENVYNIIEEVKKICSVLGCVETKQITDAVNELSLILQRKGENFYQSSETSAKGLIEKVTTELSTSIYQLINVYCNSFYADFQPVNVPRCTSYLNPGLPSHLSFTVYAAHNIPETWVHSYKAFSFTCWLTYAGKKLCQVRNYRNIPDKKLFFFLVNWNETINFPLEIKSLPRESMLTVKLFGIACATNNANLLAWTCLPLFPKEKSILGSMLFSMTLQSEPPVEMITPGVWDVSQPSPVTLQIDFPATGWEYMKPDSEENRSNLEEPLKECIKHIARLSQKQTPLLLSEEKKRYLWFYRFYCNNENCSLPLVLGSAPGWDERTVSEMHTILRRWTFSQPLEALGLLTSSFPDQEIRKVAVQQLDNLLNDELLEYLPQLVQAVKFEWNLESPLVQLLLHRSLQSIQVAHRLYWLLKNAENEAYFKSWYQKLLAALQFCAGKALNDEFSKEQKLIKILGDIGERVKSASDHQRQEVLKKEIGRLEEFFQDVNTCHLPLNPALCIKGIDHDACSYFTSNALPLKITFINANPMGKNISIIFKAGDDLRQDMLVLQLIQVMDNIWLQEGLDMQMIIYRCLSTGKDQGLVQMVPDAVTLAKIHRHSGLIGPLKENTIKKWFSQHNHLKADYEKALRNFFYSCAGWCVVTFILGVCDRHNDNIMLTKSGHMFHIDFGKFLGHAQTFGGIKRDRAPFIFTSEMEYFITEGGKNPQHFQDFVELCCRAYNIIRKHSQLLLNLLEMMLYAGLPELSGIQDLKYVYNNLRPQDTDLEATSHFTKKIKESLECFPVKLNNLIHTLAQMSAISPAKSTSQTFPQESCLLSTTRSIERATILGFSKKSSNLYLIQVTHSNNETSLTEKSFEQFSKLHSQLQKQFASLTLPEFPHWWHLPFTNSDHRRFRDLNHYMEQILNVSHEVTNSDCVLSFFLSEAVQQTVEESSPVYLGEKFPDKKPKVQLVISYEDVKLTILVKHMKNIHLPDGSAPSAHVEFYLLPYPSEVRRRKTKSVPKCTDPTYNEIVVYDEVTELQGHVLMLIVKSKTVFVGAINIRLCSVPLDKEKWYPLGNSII

T1 sequence (P42336 whole entry): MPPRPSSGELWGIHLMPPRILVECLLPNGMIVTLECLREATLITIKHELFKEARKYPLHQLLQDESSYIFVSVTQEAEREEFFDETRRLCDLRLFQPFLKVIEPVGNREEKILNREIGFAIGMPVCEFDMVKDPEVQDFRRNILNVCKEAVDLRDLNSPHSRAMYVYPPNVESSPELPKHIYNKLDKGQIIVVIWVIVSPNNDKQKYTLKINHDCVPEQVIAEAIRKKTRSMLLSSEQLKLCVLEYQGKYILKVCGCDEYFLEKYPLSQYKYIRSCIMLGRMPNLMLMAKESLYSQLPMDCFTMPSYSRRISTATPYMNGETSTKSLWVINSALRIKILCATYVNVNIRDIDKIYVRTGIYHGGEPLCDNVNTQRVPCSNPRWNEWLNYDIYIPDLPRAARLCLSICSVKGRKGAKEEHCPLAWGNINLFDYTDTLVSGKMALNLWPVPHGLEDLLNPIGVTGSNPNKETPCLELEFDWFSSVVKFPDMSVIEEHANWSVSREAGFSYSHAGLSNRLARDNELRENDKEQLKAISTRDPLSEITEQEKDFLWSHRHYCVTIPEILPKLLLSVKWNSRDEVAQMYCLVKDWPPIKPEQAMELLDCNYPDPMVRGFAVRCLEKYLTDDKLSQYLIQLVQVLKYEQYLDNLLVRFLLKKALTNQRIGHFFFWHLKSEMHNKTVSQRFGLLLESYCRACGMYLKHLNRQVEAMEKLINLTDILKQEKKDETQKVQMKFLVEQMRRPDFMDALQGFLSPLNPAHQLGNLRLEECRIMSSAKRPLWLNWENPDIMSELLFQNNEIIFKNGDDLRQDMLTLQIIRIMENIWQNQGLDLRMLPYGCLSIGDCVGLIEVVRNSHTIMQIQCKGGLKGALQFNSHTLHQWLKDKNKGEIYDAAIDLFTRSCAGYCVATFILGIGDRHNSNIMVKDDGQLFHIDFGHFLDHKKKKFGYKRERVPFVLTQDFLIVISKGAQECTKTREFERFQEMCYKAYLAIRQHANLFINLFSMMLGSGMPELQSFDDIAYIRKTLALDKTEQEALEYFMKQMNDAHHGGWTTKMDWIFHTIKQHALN
T1 sequence (P27986 whole entry partner): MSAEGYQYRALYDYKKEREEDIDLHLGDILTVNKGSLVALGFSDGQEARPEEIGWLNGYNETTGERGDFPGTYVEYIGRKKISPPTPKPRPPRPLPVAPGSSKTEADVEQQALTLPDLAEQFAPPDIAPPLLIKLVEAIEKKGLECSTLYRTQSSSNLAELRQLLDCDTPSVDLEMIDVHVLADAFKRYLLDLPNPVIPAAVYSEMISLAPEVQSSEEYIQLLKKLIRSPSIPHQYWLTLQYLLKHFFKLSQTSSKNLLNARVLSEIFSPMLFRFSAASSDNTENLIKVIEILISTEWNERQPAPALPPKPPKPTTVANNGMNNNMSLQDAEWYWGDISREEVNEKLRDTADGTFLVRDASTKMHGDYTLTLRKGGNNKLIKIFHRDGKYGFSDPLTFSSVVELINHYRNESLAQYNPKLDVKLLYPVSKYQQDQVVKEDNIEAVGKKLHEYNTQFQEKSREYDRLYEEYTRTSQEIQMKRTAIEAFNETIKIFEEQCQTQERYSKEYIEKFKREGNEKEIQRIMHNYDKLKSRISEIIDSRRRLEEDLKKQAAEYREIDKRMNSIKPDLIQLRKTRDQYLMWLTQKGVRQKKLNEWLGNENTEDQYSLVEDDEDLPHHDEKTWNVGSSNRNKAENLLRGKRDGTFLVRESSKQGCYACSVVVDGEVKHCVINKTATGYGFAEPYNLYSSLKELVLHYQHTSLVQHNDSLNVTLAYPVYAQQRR

COc1ncc(-c2sc(NC(=O)CC3CCOCC3)nc2C)cc1S(=O)(=O)NC1CCCC(O)C1 (centres unmarked) [Compound S-263]
IC50 [1]: 1 to 10 µM | IC50 [2]: 0.1 to 1 µM

— patent US10428060B2, “PI-kinase inhibitors with anti-infective activity” (The Board of Trustees of the Leland Stanford Junior …, priority 2011, dated 2019)
